Ends that are not written are not given here.
Columns and labels:
[1] = system: diabetic rats; assay: Vascular abnormalities in the retina of diabetic rats; format: in vivo, Sprague-Dawley rats; conditions: intravitreal injection
Procedure: Diabetes was induced in male Sprague-Dawley rats after fasting overnight by a single intraperitoneal injection of STZ (65 mg/kg body weight). STZ was freshly prepared in 0.1 M citrate buffer (pH 4.5). Rats with blood glucose levels >350 mg/dl for 5 days after receiving STZ were considered to be in diabetic status and were termed diabetic rats hereinafter. Blood glucose levels were checked every 2 days a blood glucose monitor. Animals that served as non-diabetic controls received an equivalent amount of citrate buffer alone. For peptide treatment, diabetic rats were anesthetized by an intraperitoneal injection of a Xylazine (10 mg/kg), and then intravitreally injected with 3 μl of the present synthetic peptide (10 mM) into one eye and an equal volume of PBS was injected into the contralateral eye (n=3-6 per group). After peptide treatment for 24 h, measurement of retinal vascular leakage by BSA-FITC (100 mg/kg body weight) was conducted in according to procedures described above.

[2] = system: RPMI8226 cells; assay: MTT assay, VEGF-induced proliferation of RPMI8226 cells; format: cell-based
How it was run: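 After 24 h serum starvation, cells seeded at 3×10^5/well and cultured 24 h in serum-free RPMI1640 with 25 μM peptide, VEGF serving as proliferation stimulus. Viability by MTT (4 h, 37° C), DMSO solubilisation 20 min, absorbance at 570 nm.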

[3] = system: HUVECs; assay: Apoptosis assay (annexin V-FITC); format: cell-based; conditions: treatment for 16 hrs; annexin V-FITC staining
Procedure: The percentage of apoptotic HUVEC cells was assayed using TACS annexin V-FITC kit. The percentage of annexin V-positive cells was determined using in situ staining according to the manufacturer's instruction. The cell number was determined by counterstaining with Hoechst 33342. The nuclei in ten randomly selected fields of the three different chambers (˜7200 cells) were counted. Specimens were examined and photographed on a Zeiss epifluorescence microscope (×100, 10 fields/sample). Pictures were recorded on Zeiss software.

[4] = system: human uterine sarcoma cells (MES-SA/Dx5); assay: Tumorigenicity assay, xenografted human uterine sarcoma; format: in vivo, nude mice; conditions: 10 mg/kg intraperitoneal every 2 days for 10 days
Procedure: MES-SA/Dx5 cells (5×10^6 cells in 0.1 ml) were implanted by subcutaneous injections in the right flank region of female nude mice (n=24, each animal weighted about 20 g before the assay began). The experiments were approved by the Mackay Memorial Hospital Review Board for animal investigation. Treatment was initiated in animals when the tumor volume was above 80 mm^3. Vehicle DMSO, the present synthetic peptide or the control peptide (10 mg/kg) was administered by intraperitoneal injections every 2 days. Tumor progression was monitored for 10 days; size of the tumor was measured every 3 to 5 days with a caliper and the volume was calculated using the following formula: ½×length×width^2.
To this purpose, human uterine sarcoma cells (MES-SA/Dx5) were implanted in nude mice to induce tumor formation, and when the volume of each tumor reached 80 mm^3, animals were then treated with vehicle alone, or the 7-mer peptide at the dose of 10 mg/kg, every 2 days for 10 days. Results are depicted in FIG. 9.

[5] = system: HUVECs; assay: VEGF-induced HUVEC proliferation assay; format: cell-based; conditions: VEGF (10 ng/mL) + 25 μM peptide; vs untreated HUVECs
[6] = system: laser-induced wet AMD mouse model; assay: Laser induced choroidal neovascularization (CNV), mouse; format: in vivo, C57BL/6 mice; conditions: 10 mg/kg intraperitoneal twice a day for 10 days; vs vehicle
Procedure: The 8-week-old female C57BL/6 mice were anaesthetized by injecting intraperitoneally a mixture of zoletil (6 mg/kg) and xylazine (3 mg/kg). The retina was viewed through a slit lamp microscope, and the optic nerve head was placed in the center of the microscope field. Both eyes received 3 or 4 laser burns around the optic nerve head using the diode laser (lesion diameter 50 μm; duration 100 ms; energy 250 mW). The formation of a blister indicates rupture of the Bruch's membrane after laser application. DMSO Vehicle or 7-mer (10 mg/kg; n≥10 per peptide) were administered by intraperitoneal injections twice a day for 10 days. Fluorescein fundus images were taken about 5 minutes after intraperitoneal injection of 0.1 mL of 100 mg/ml Fluorescein (10% w/v). During this period, the size of fluorescein leakage spots was relatively stable. The leakage of each CNV lesion was graded by a retina specialist according to the method described by Sheets et al. (Molecular Vision 2010; 16:320-329). […]
Wet type age-related macular degeneration (AMD) is characterized by extensive growth of new vessels in retina. […] Newly formed microvessels with clear fluorescein leakage in retina were assessed by fundus fluorescein angiography 10 days post laser treatment, and results are provided in the photographs of FIG. 13.

NH2-Asp-Leu-Tyr-Arg-Val-Arg-Ser-COOH (DLYRVRS; not fully specified (N-terminus, C-terminus); printed as NH2-Asp-Leu-Tyr-Arg-Val-Arg-Ser-COOH) [7-mer]
levels of leaked FITC-BSA in entire retina vs vehicle [1]: 0.43±0.07 fold
number of vascular lesion in retina ([1]; 24 h): 9.2±2.15
dose dependence of inhibitory action on VEGF-induced cell proliferation ([2]; 1 to 25 μM, RPMI8226 cells): dose dependent manner
effect on VEGF-induced proliferation of RPMI8226 cells ([2]; VEGF 50 ng/ml, 25 μM peptide, 24 hrs, MTT): suppressed
percentage of apoptotic HUVECs [3]: 32.4±3.8%
tumor volume [4]: 125±15.4 mm^3
Cell number (Fold) [5]: 0.95 ± 0.050 Fold
CNV lesion grades, severity distribution [6]: lower severity distribution of CNV

From US10463709B2, “Short synthetic peptide for treating diseases and/or conditions related to angiogenesis” (MacKay Memorial Hospital, priority 2015, dated 2019)
